Data reported in publication PMC11882969 (Nature Communications, 2025).
Values joined by “and” are separate entries in the source; they are usually repeats but may differ in a detail not shown here. Identical values can stand only once.

Columns and labels:
[1] = Dynamic light scattering, colloidal aggregation; type: physicochemical; settings: Log[compound, replicates, sheet FigS2b
Experimental: Samples were prepared as 8-point half-log dilutions in filtered 50 mM KPi buffer, pH 7.0 with final DMSO concentration at 1% (v/v). Colloidal particle formation was measured using DynaPro Plate Reader II (Wyatt Technologies). All compounds were screened in triplicate.

[2] = tested on: Malate dehydrogenase; assay: Enzyme inhibition counter-screen, MDH; type: biochemical; settings: Rep 1-3 mean; sheet FigureS2c
Experimental: Enzyme inhibition assays to test for colloidal inhibition were performed at room temperature using CLARIOstar Plate Reader (BMG Labtech). Samples were prepared in 50 mM KPi buffer, pH 7.0 with final DMSO concentration at 1% (v/v). Compounds were incubated with 2 nM AmpC β-lactamase (AmpC) or Malate dehydrogenase (MDH) for 5 min. AmpC reactions were initiated by the addition of 50 μM CENTA chromogenic substrate (219475, Calbiochem). […] MDH reactions were initiated by the addition of 200 μM nicotinamide adenine dinucleotide (NADH) (54839, Sigma Aldrich) and 200 μM oxaloacetic acid (324427, Sigma Aldrich). The change in absorbance was monitored at 340 nm for 60 sec. Initial rates were divided by the DMSO control rate to determine % enzyme activity. Each compound was screened at 100μM in triplicate for three independent experiments, if enzyme inhibition greater than 30% was observed, 8-point half-log concentrations were performed in triplicate for three independent experiments. Data was analyzed using GraphPad Prism 9.1.

Cn1nc(-c2nnc(C(C)(C)Oc3ccc(Cl)cc3)o2)c2ccccc2c1=O [‘0450]
DLS scattering intensity ([1]; uM] 0): 721249 and 1482870 and 678793
DLS scattering intensity ([1]; uM] 0.5): 820738 and 723783 and 889231
DLS scattering intensity ([1]; uM] 1): 2818066 and 935392 and 954008
DLS scattering intensity ([1]; uM] 1.49996): 37596765 and 31006318 and 24739178
DLS scattering intensity ([1]; uM] 2): 93917555 and 151664189 and 85385693
DLS scattering intensity ([1]; uM] -0.500011): 759174 and 1269323 and 983915
DLS scattering intensity ([1]; uM] -1): 623247 and 1064137 and 868483
DLS scattering intensity ([1]; uM] -1.5): 703949 and 596678 and 546381
MDH activity (DMSO = 100), replicate means [2]: 124.427 and 98.8422 and 101.682
